This note sets out measurements from the supplement of paper PMC13380429.

The cell viability is a read-out of living cells in per cent, often relative to untreated cells.

Where only a bound is given, the exact number is not on record here.

Conditions in all cases: 72 h
For experiment [1], the system named is Vero E6. The experiment in a line: drug sensitivity score (DSS) for viability; higher = more toxic; extreme values may be limits of the assay.
The test system of experiment [2] is U2OS. The experiment is described as above.
The test system of experiment [3] is Calu-3. Described as above.
Experiment [4] deals with Caco-2. The description is as above.
Experiment [5] concerns HepG2. The experiment is described as above.
Experiment [6] has as its system Vero E6. The experiment is described as follows: relative viability EC50 (midpoint between 100% and the lowest measured viability); higher = less toxic.
For experiment [7], the system named is Calu-3. The experiment is described as above.
Experiment [8] concerns Caco-2. Described as above.
The subject of experiment [9] is HepG2. Described as above.
Experiment [10] deals with Vero E6. The experiment is described as follows: cell viability relative to DMSO; higher = less toxic.
Experiment [11] concerns U2OS. The description is as above.
In experiment [12] the test system is Calu-3. Described as above.
For experiment [13], the system named is Caco-2. The description is as above.
The test system of experiment [14] is HepG2. The description is as above.

Turning to `CN(C)CCCC(=O)Nc1ccc(C(=O)Nc2cccc(Nc3ncc(Cl)c(-c4c[nH]c5ccccc45)n3)c2)cc1` [THZ1-R], the drug sensitivity score turned out to be 0 in the experiment on Vero E6 [1]; 1.5 in the experiment with U2OS [2]; 1.3 with Calu-3 [3]; 0.7 with Caco-2 [4]; 9.7 with HepG2 [5]. Also, the “relative viability EC50” value was > 10 µM in the experiment on Vero E6 [6], > 10 µM in the experiment with Calu-3 [7], > 10 µM with Caco-2 [8] and 1.22 µM with HepG2 [9]. Further, the cell viability was 95.6% with Vero E6 [10] (1 nM); 98% with Vero E6 [10] (10 nM); 96.9% in the experiment with Vero E6 [10] (100 nM); 93.4% with Vero E6 [10] (1000 nM); 105% with Vero E6 [10] (10000 nM); 96.2% in the experiment on U2OS [11] (1 nM). Also, the cell viability in the experiment with U2OS [11] (10 nM) was 104%; in the experiment with U2OS [11] (100 nM), 97.6%; with U2OS [11] (1000 nM), 102%; in the experiment with U2OS [11] (10000 nM), 65.1%; in the experiment with Calu-3 [12] (1 nM), 97.6%; in the experiment on Calu-3 [12] (10 nM) it was 103%. In addition, the cell viability in the experiment on Calu-3 [12] (100 nM) came out at 106%; with Calu-3 [12] (1000 nM), 94.8%; in the experiment on Calu-3 [12] (10000 nM) it was 79.7%; in the experiment with Caco-2 [13] (1 nM), 92.2%; in the experiment on Caco-2 [13] (10 nM) it was 98.6%; with Caco-2 [13] (100 nM), 94.5%. Also, the cell viability is 100% in the experiment on Caco-2 [13] (1000 nM); 77.9% in the experiment on Caco-2 [13] (10000 nM); 96% in the experiment with HepG2 [14] (1 nM); 91.4% with HepG2 [14] (10 nM); 107% with HepG2 [14] (100 nM); 65.7% in the experiment with HepG2 [14] (1000 nM). For the same compound, the cell viability in the experiment on HepG2 [14] (10000 nM) was found to be 9.4%.
Take `CCN(CC)CCOC(=O)C(c1ccccc1)c1ccccc1` [adiphenine]: the drug sensitivity score with Vero E6 [1], with Calu-3 [3], with Caco-2 [4] and in the experiment on HepG2 [5] was 0 in each case. The “relative viability EC50” value with Vero E6 [6], in the experiment on Calu-3 [7], in the experiment with Caco-2 [8] and with HepG2 [9] was > 10 µM in each case. The cell viability with Vero E6 [10] (1 nM) stood at 111%; with Vero E6 [10] (10 nM) it was 116%; in the experiment on Vero E6 [10] (100 nM), 105%; in the experiment on Vero E6 [10] (1000 nM) it was 107%; in the experiment on Vero E6 [10] (10000 nM), 99.2%; in the experiment on Calu-3 [12] (1 nM), 109%. In addition, the cell viability came to 113% in the experiment with Calu-3 [12] (10 nM); 97% in the experiment with Calu-3 [12] (100 nM); 104% in the experiment with Calu-3 [12] (1000 nM); 124% with Calu-3 [12] (10000 nM); 105% with Caco-2 [13] (1 nM); 102% in the experiment with Caco-2 [13] (10 nM). Also, the cell viability in the experiment on Caco-2 [13] (100 nM) worked out at 95.1%; in the experiment with Caco-2 [13] (1000 nM) it was 98.3%; in the experiment with Caco-2 [13] (10000 nM) it was 103%; in the experiment on HepG2 [14] (1 nM) it was 103%; in the experiment on HepG2 [14] (10 nM), 109%; in the experiment on HepG2 [14] (100 nM), 106%. The results for the cell viability in the experiment with HepG2 [14] (1000 nM) and in the experiment with HepG2 [14] (10000 nM) were 113% and 99.1%, respectively.
Take `O=c1[nH]cnc2c1cnn2[C@@H]1O[C@H](CO)[C@@H](O)[C@H]1O` [allopurinol-riboside]: the drug sensitivity score with Vero E6 [1], with Calu-3 [3] and with Caco-2 [4] was 0 each time. Further, the “relative viability EC50” value in the experiment on Vero E6 [6], with Calu-3 [7] and in the experiment with Caco-2 [8] was > 10 µM throughout. The cell viability with Vero E6 [10] (1 nM) worked out at 102%; in the experiment with Vero E6 [10] (10 nM) it was 100%; in the experiment on Vero E6 [10] (100 nM), 98.2%; in the experiment with Vero E6 [10] (1000 nM) it was 103%; in the experiment with Vero E6 [10] (10000 nM) it was 102%; with Calu-3 [12] (1 nM) it was 102%. The cell viability was 90.7% in the experiment on Calu-3 [12] (10 nM); 103% in the experiment with Calu-3 [12] (100 nM); 93.4% with Calu-3 [12] (1000 nM); 98.1% with Calu-3 [12] (10000 nM); 97.7% in the experiment on Caco-2 [13] (1 nM); 98% with Caco-2 [13] (10 nM). Moreover, the results for the cell viability with Caco-2 [13] (100 nM), in the experiment with Caco-2 [13] (1000 nM) and in the experiment with Caco-2 [13] (10000 nM) were 111%, 91.8% and 101%, respectively.
Take `COc1cc(N)cn[n+]1-c1ccccc1` [amezinium]: the drug sensitivity score in the experiment with Calu-3 [3] and in the experiment with Caco-2 [4] was 0 throughout. For the same compound, the “relative viability EC50” value with Calu-3 [7] and in the experiment on Caco-2 [8] was > 10 µM throughout. In addition, the cell viability in the experiment with Calu-3 [12] (1 nM) worked out at 97.8%; in the experiment on Calu-3 [12] (10 nM), 110%; with Calu-3 [12] (100 nM), 106%; in the experiment on Calu-3 [12] (1000 nM) it was 89.9%; in the experiment on Calu-3 [12] (10000 nM) it was 96.6%; with Caco-2 [13] (1 nM), 109%. Also, the cell viability in the experiment with Caco-2 [13] (10 nM) amounted to 108%; with Caco-2 [13] (100 nM), 100%; in the experiment with Caco-2 [13] (1000 nM), 110%; in the experiment with Caco-2 [13] (10000 nM), 97.8%.
Regarding `CC(C)(S)C(=O)N[C@@H](CS)C(=O)O` [bucillamine], the drug sensitivity score in the experiment on Vero E6 [1], with Calu-3 [3] and in the experiment with HepG2 [5] was 0 each time.
